One test has as its system hippocampal CA1 neurons. The test is described as follows: Survival of hippocampal CA1 neurons in gerbil global ischemia model. The class given is in vivo.
The test system of another test is spectrin breakdown. Briefly: Spectrin breakdown in gerbil global ischemia model (CA1 hippocampal sector, Western blotting). In kind it is in vivo. The settings on record: FIG. 1. On the procedure: Gerbils were anesthetized using 4% isolflurane volatilized using a gas mixture consisting of 30% O2 and 70% N2. After the induction of anesthesia, a preferred compound of the invention, compound 40 (Example 34), was administered either immediately before the induction of ischemia and 24 hours after the initiation of reperfusion (FIG. 2), or three hours after the initiation of reperfusion and 24 hours after the initiation of reperfusion (FIG. 3). To induce ischemia, the common carotid arteries were exposed and occluded bilaterally for 7 minutes. Gerbil core temperature was carefully regulated at 38° C. by a thermostatically controlled heat lamp. Reperfusion was initiated by the release of the arterial occlusion, whereupon anesthesia was terminated so that the gerbils began to breath room air. The neck incision was closed, and the gerbils were returned to the incubator for one hour to maintain their core temperature. At 1 hour of reperfusion, anesthesia was induced by inhalation of CO2 and the gerbils were sacrificed. The CA1 hippocampal sector was dissected using a hole punch (0.3 mm), and spectrin breakdown products (BDP) were determined by Western Blotting. Spectrin breakdown was quantified by image analysis, and percent inhibition was calculated by integrated optical density. […]

The target in the next test is T1, cathepsin B (Homo sapiens, UniProt P07858).
T1 construct: purchased Calbiochem 219364
Briefly: Inhibition of cathepsin B. The class given is biochemical. The conditions noted are these: Table II; read-out: Cat B IC50. On the procedure: (§1) Additionally,the order of reagents added to the plate was altered because both enzymes are constitutively active. Following inhibitor addition to the plates, appropriate 2× concentrated stock dilutions of the enzyme preparations were made in assay buffer and 100 μl added to each well. The assay was initiated by addition of 100 μl of 2× concentrated stock dilution of substrate in assay buffer.

In test [1] the target is T2, Recombinant human calpain I (Homo sapiens, UniProt P07384).
T2 construct: made in house
T2 sequence (P07384 1-714): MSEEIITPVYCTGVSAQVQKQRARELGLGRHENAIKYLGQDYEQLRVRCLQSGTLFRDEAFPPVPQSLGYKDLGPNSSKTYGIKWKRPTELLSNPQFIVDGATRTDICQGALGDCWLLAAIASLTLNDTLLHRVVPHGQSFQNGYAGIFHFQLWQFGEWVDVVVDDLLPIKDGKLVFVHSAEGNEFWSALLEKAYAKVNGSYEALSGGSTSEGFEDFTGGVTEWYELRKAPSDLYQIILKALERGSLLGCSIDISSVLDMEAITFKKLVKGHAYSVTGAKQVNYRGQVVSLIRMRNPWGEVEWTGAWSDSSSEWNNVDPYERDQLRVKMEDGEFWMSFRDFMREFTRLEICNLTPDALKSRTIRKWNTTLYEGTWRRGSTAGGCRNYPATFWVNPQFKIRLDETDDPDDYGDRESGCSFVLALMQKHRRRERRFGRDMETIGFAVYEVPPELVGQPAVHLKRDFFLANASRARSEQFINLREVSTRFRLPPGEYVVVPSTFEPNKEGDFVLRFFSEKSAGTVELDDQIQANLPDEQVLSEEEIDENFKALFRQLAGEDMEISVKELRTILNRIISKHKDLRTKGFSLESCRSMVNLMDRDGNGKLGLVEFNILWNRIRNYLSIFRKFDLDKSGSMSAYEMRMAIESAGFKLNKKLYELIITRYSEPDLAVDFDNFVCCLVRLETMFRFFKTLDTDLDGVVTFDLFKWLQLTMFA
The test is described as follows: Inhibition of calpain I activity. In kind it is biochemical. The conditions noted are these: Table II.

Another test deals with T3, α-chymotrypsin (Bos taurus, UniProt P00766).
T3 construct: purchased Sigma Chem. Co. C-3142
The test is described as follows: Inhibition of α-chymotrypsin. In kind it is biochemical. The settings on record: Table II; 10 uM; read-out: Chymotrypsin % I @ 10 uM. Put shortly: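 Enzyme added to inhibitor first, then reaction started with substrate; no calcium activation needed as enzyme is constitutively active. Fluorogenic substrate hydrolysis read every 5 min up to 30 min ([…]).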

The target in another test is T4, thrombin (Homo sapiens, UniProt P00734).
T4 construct: purchased Sigma Chem. Co. T-7009
The test is described as follows: Inhibition of thrombin. The class given is biochemical. The conditions noted are these: Table II; 10 uM; read-out: Thrombin % I @ 10 uM.

The target of the next test is T5, cathepsin L (Homo sapiens, UniProt P07711).
T5 construct: purchased Calbiochem 219402
Briefly: Inhibition of cathepsin L. The class given is biochemical. The settings on record: Table II; read-out: Cat L IC50. How it is done:
as §1

T5 sequence (P07711 114-288 limits assumed): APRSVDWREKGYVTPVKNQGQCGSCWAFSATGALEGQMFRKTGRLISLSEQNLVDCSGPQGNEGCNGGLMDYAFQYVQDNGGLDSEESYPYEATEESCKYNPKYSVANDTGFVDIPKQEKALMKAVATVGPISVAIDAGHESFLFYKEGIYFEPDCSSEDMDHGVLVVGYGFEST
T5 sequence (P07711 292-333 limits assumed): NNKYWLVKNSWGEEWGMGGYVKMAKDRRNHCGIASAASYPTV
Experimental for hippocampal CA1 neurons: Gerbils were anesthetized using 4% isolflurane volatilized using a gas mixture consisting of 30% O2 and 70% N2. […] To induce ischemia, the common carotid arteries were exposed and occluded bilaterally for 7 minutes. Gerbil core temperature was carefully regulated at 38° C. by a thermostatically controlled heat lamp. Reperfusion was initiated by the release of the arterial occlusion, whereupon anesthesia was terminated so that the gerbils began to breath room air. The neck incision was closed, and the gerbils were returned to the incubator for one hour to maintain their core temperature. At 1 hour of reperfusion, anesthesia was induced by inhalation of CO2 and the gerbils were sacrificed.
To quantify histopathological damage, the gerbils were returned to their home cages after one hour reperfusion in the incubator and then sacrificed, as described above, four days later. The brains were rapidly removed, frozen on dry ice, and then sectioned using a cryostat. Twenty micron sections were stained with thionin, and surviving neurons in the hippocampal CA1 sector were counted using computer assisted image analysis.

`CS(=O)(=O)N[C@H](COCc1ccccc1)C(=O)N[C@H](C=O)Cc1ccccc1` [Compound 40, BnO--CH2 CH(NHS(=O)2 CH3)C(=O)-Phe--H]: the “number of surviving hippocampal CA1 neurons relative to controls” value with hippocampal CA1 neurons (dosed immediately before ischemia and 24 hours after initiation of reperfusion, FIG. 2) is listed as “more than doubled the number of surviving hippocampal CA1 neurons”. Also, in the test on hippocampal CA1 neurons (dosed immediately before ischemia and 24 hours after initiation of reperfusion, p<0.01, FIG. 2), the “neuroprotection at four days after the ischemic insult” value is listed as “neuroprotective at four days after the ischemic insult”. Besides, in the test with hippocampal CA1 neurons (dosed three hours and 24 hours after initiation of reperfusion, p<0.02, FIG. 3), the neuroprotective effect result was “neuroprotective effect”. For the same compound, the “reduction of spectrin breakdown” value in the test with spectrin breakdown was “approximately 50%”. Further, the “suppression of spectrin breakdown in CA1 hippocampal sectors” value with spectrin breakdown (vs vehicle-treated control gerbils, p<0.0001) is “statistically significant suppression of spectrin breakdown”. The values for the IC50 (at cathepsin B; in test [1]; on cathepsin L) were 42 nM, 11 nM and 9 nM, respectively. Besides, the inhibition at 10 µM on α-chymotrypsin stood at 23%; on thrombin it was 0%.

One may read the IC50 as the point on the concentration scale where inhibition reaches its midpoint.

The values above are taken from patent publication US5852007A, “Cysteine and serine protease inhibitors containing D-amino acid at the P2 position, methods of making same, and methods of using same” (priority 1997, dated 1998).
